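The compound was tested at five concentrations on cells cultured in 96-well plates, with a 48-hour exposure period. TGI: total growth inhibition.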
What was measured:
Assay in all cases: NCI tumour cell line growth inhibition, 48 h
OVCAR-5 ovarian = system: OVCAR-5 ovarian
HOP-92 NSCLC = system: HOP-92 NSCLC
SF-295 CNS = system: SF-295 CNS
ACHN renal = system: ACHN renal
OVCAR-3 ovarian = system: OVCAR-3 ovarian
PC-3 prostate = system: PC-3 prostate
UACC-62 melanoma = system: UACC-62 melanoma
CCRF-CEM leukemia = system: CCRF-CEM leukemia
K-562 leukemia = system: K-562 leukemia
SW-620 colon = system: SW-620 colon
HOP-62 NSCLC = system: HOP-62 NSCLC
A549 NSCLC = system: A549 NSCLC
TK-10 renal = system: TK-10 renal
CAKI-1 renal = system: CAKI-1 renal
SK-OV-3 ovarian = system: SK-OV-3 ovarian
M14 melanoma = system: M14 melanoma
NCI-H460 lung = system: NCI-H460 lung
HS 578T breast = system: HS 578T breast
DU-145 prostate = system: DU-145 prostate
SK-MEL-2 melanoma = system: SK-MEL-2 melanoma
NCI-H226 lung = system: NCI-H226 lung
HL-60(TB) leukemia = system: HL-60(TB) leukemia
EKVX NSCLC = system: EKVX NSCLC
RXF 393 renal = system: RXF 393 renal
786-0 renal = system: 786-0 renal
NCI/ADR-RES ovarian = system: NCI/ADR-RES ovarian
SF-539 CNS = system: SF-539 CNS
HCT-116 colon = system: HCT-116 colon
COLO 205 colon = system: COLO 205 colon
MCF7 breast = system: MCF7 breast
HCT-15 colon = system: HCT-15 colon
UACC-257 melanoma = system: UACC-257 melanoma
SNB-75 CNS = system: SNB-75 CNS
A498 renal = system: A498 renal
NCI-H23 lung = system: NCI-H23 lung
HT29 colon = system: HT29 colon
MDA-MB-231 breast = system: MDA-MB-231 breast
MDA-N = system: MDA-N
SNB-19 CNS = system: SNB-19 CNS
BT-549 breast = system: BT-549 breast
UO-31 renal = system: UO-31 renal
OVCAR-8 ovarian = system: OVCAR-8 ovarian
LOX IMVI melanoma = system: LOX IMVI melanoma
NCI-H522 lung = system: NCI-H522 lung
RPMI-8226 leukemia = system: RPMI-8226 leukemia
MDA-MB-435 = system: MDA-MB-435
KM12 colon = system: KM12 colon
SR leukemia = system: SR leukemia
MOLT-4 leukemia = system: MOLT-4 leukemia
T-47D breast = system: T-47D breast
OVCAR-4 ovarian = system: OVCAR-4 ovarian
SK-MEL-28 melanoma = system: SK-MEL-28 melanoma
SK-MEL-5 melanoma = system: SK-MEL-5 melanoma
SF-268 CNS = system: SF-268 CNS
SN12C renal = system: SN12C renal
MALME-3M melanoma = system: MALME-3M melanoma
U251 CNS = system: U251 CNS
IGROV1 ovarian = system: IGROV1 ovarian

In the case of Cc1c(C(=O)O)nc(/C=C/C(=O)O)[nH]c1=O, the TGI (OVCAR-5 ovarian) is reported as greater than 100 µM, the TGI (HOP-92 NSCLC) is reported as greater than 100 µM and the TGI (SF-295 CNS) is reported as greater than 100 µM. The TGI (ACHN renal) was greater than 100 µM, the TGI (OVCAR-3 ovarian) was greater than 100 µM and the TGI (PC-3 prostate) was greater than 100 µM. The TGI (UACC-62 melanoma) was greater than 100 µM, the TGI (CCRF-CEM leukemia) was greater than 100 µM and the TGI (K-562 leukemia) was greater than 100 µM. It also gave a TGI (SW-620 colon) greater than 100 µM, a TGI (HOP-62 NSCLC) greater than 100 µM and a TGI (A549 NSCLC) greater than 100 µM. For the same compound, the TGI (TK-10 renal) was greater than 100 µM, the TGI (CAKI-1 renal) was greater than 100 µM and the TGI (SK-OV-3 ovarian) was greater than 100 µM. It also gave a TGI (M14 melanoma) greater than 100 µM, a TGI (NCI-H460 lung) greater than 100 µM and a TGI (HS 578T breast) greater than 100 µM. For the same compound, the TGI (DU-145 prostate) was greater than 100 µM, the TGI (SK-MEL-2 melanoma) was greater than 100 µM and the TGI (NCI-H226 lung) was greater than 100 µM. The TGI (HL-60(TB) leukemia) was greater than 100 µM, the TGI (EKVX NSCLC) was greater than 100 µM and the TGI (RXF 393 renal) was greater than 100 µM. The TGI (786-0 renal) was greater than 100 µM, the TGI (NCI/ADR-RES ovarian) was greater than 100 µM and the TGI (SF-539 CNS) was greater than 100 µM. The TGI (HCT-116 colon) was greater than 100 µM, the TGI (COLO 205 colon) was greater than 100 µM and the TGI (MCF7 breast) was greater than 100 µM. For the same compound, the TGI (HCT-15 colon) was greater than 100 µM, the TGI (UACC-257 melanoma) was greater than 100 µM and the TGI (SNB-75 CNS) was greater than 100 µM. The TGI (A498 renal) was greater than 100 µM, the TGI (NCI-H23 lung) was greater than 100 µM and the TGI (HT29 colon) was greater than 100 µM. For the same compound, the TGI (MDA-MB-231 breast) was greater than 100 µM, the TGI (MDA-N) was greater than 100 µM and the TGI (SNB-19 CNS) was greater than 100 µM. For the same compound, the TGI (BT-549 breast) was greater than 100 µM, the TGI (UO-31 renal) was greater than 100 µM and the TGI (OVCAR-8 ovarian) was greater than 100 µM. It also gave a TGI (LOX IMVI melanoma) greater than 100 µM, a TGI (NCI-H522 lung) greater than 100 µM and a TGI (RPMI-8226 leukemia) greater than 100 µM. For the same compound, the TGI (MDA-MB-435) was greater than 100 µM, the TGI (KM12 colon) was greater than 100 µM and the TGI (SR leukemia) was greater than 100 µM. It also gave a TGI (MOLT-4 leukemia) greater than 100 µM, a TGI (T-47D breast) greater than 100 µM and a TGI (OVCAR-4 ovarian) greater than 100 µM. It also gave a TGI (SK-MEL-28 melanoma) greater than 100 µM, a TGI (SK-MEL-5 melanoma) greater than 100 µM and a TGI (SF-268 CNS) greater than 100 µM. For the same compound, the TGI (SN12C renal) was greater than 100 µM, the TGI (MALME-3M melanoma) was greater than 100 µM and the TGI (U251 CNS) was greater than 100 µM. The TGI (IGROV1 ovarian) was greater than 100 µM.

Compound COc1ccc(C(=O)N/N=C2\C(=O)c3c(C)cc(C)cc3CC2(C)C)cc1 has a TGI (OVCAR-5 ovarian) of 55.5 µM, a TGI (HOP-92 NSCLC) of 31.3 µM and a TGI (SF-295 CNS) of 40.1 µM. For the same compound, the TGI (ACHN renal) was 58.7 µM, the TGI (OVCAR-3 ovarian) was 30.9 µM and the TGI (PC-3 prostate) was 47.7 µM. The TGI (UACC-62 melanoma) was 31.6 µM, the TGI (CCRF-CEM leukemia) was 65.6 µM and the TGI (K-562 leukemia) was 64.7 µM. The TGI (SW-620 colon) was 84.2 µM, the TGI (HOP-62 NSCLC) was 37.4 µM and the TGI (A549 NSCLC) was 44.2 µM. For the same compound, the TGI (TK-10 renal) was greater than 100 µM, the TGI (CAKI-1 renal) was greater than 100 µM and the TGI (SK-OV-3 ovarian) was greater than 100 µM. The TGI (M14 melanoma) was 38.8 µM, the TGI (NCI-H460 lung) was 78.4 µM and the TGI (HS 578T breast) was 41.9 µM. It also gave a TGI (DU-145 prostate) of 63.8 µM, a TGI (SK-MEL-2 melanoma) of 36.2 µM and a TGI (NCI-H226 lung) of 45.7 µM. It also gave a TGI (HL-60(TB) leukemia) of 51.5 µM, a TGI (EKVX NSCLC) of 70.1 µM and a TGI (RXF 393 renal) of 32.6 µM. The TGI (786-0 renal) was 36.1 µM, the TGI (NCI/ADR-RES ovarian) was 80.6 µM and the TGI (SF-539 CNS) was 46 µM. It also gave a TGI (HCT-116 colon) of 32.1 µM, a TGI (COLO 205 colon) of 49.3 µM and a TGI (MCF7 breast) of 36.4 µM. The TGI (HCT-15 colon) was 64.3 µM, the TGI (UACC-257 melanoma) was 98.5 µM and the TGI (SNB-75 CNS) was 56.5 µM. It also gave a TGI (A498 renal) of 42.4 µM, a TGI (NCI-H23 lung) greater than 100 µM and a TGI (HT29 colon) of 36.9 µM. It also gave a TGI (MDA-MB-231 breast) of 56.1 µM, a TGI (MDA-N) of 39.3 µM and a TGI (SNB-19 CNS) of 84 µM. It also gave a TGI (BT-549 breast) of 36.2 µM, a TGI (OVCAR-8 ovarian) of 56.6 µM and a TGI (LOX IMVI melanoma) of 34.2 µM. It also gave a TGI (NCI-H522 lung) of 33.6 µM, a TGI (RPMI-8226 leukemia) of 57.5 µM and a TGI (MDA-MB-435) of 35.1 µM. For the same compound, the TGI (KM12 colon) was 39.9 µM, the TGI (SR leukemia) was 47.9 µM and the TGI (MOLT-4 leukemia) was 37.3 µM. It also gave a TGI (T-47D breast) of 40.4 µM, a TGI (OVCAR-4 ovarian) greater than 100 µM and a TGI (SK-MEL-28 melanoma) of 42.2 µM. The TGI (SK-MEL-5 melanoma) was 31.9 µM, the TGI (SF-268 CNS) was 42.9 µM and the TGI (SN12C renal) was 37.2 µM. The TGI (MALME-3M melanoma) was 31.6 µM, the TGI (U251 CNS) was 31.9 µM and the TGI (IGROV1 ovarian) was 41.5 µM.

From PubChem BioAssay (NCI)
